Test results published in the NIST ThermoML archive (doi:10.1021/je700271n).
± gives the expanded uncertainty stated by the source.

Conditions: Liquid

Structure (SMILES): FC(C(F)(F)F)C(F)(F)F [1,1,1,2,3,3,3-heptafluoropropane]
- vapor or sublimation pressure (273.15 K): 195 ± 3 kPa
- vapor or sublimation pressure (283.15 K): 280 ± 4 kPa
- vapor or sublimation pressure (293.15 K): 389 ± 5 kPa
- vapor or sublimation pressure (303.15 K): 527 ± 7 kPa
- vapor or sublimation pressure (313.15 K): 704 ± 9 kPa
- vapor or sublimation pressure (323.15 K): 920 ± 11 kPa

Structure (SMILES): CCC [propane]
- vapor or sublimation pressure (273.15 K): 476 ± 6 kPa
- vapor or sublimation pressure (283.15 K): 632 ± 8 kPa
- vapor or sublimation pressure (293.15 K): 833 ± 10 kPa
- vapor or sublimation pressure (303.15 K): 1079 ± 13 kPa
- vapor or sublimation pressure (313.15 K): 1366 ± 17 kPa
- vapor or sublimation pressure (323.15 K): 1709 ± 21 kPa
